Reference: ChEMBL document CHEMBL3046828, “Disappearance of pyrimethanil residues on tomato plants” (J Agric Food Chem, 2002)

How the values were obtained:
[1] = tested on: Leaf; experiment: Residue remaining in Solanum lycopersicum (tomato) plant leaves at 300 g/L treated under green house condition measured after 11 days relative to initial level; conditions: 264 h
[2] = Half life in Solanum lycopersicum (tomato) plant leaves at 300 g/L treated under green house condition; format: ADME, Leaf
[3] = tested on: Leaf; experiment: Drug degradation in Solanum lycopersicum (tomato) plant leaves at 300 g/L treated under green house condition measured after 5 days relative to initial level; format: ADME; conditions: 120 h
[4] = tested on: Fruit; experiment: Drug degradation in Solanum lycopersicum (tomato) plant fruits at 300 g/L treated under green house condition measured after 10 days relative to initial level; format: ADME; conditions: 240 h
[5] = tested on: Fruit; experiment: Drug degradation in Solanum lycopersicum (tomato) plant fruits at 300 g/L treated under green house condition measured after 1 day relative to initial level; format: ADME; conditions: 24 h
[6] = tested on: Leaf; experiment: Drug degradation in Solanum lycopersicum (tomato) plant leaves at 300 g/L treated under green house condition measured after 8 days relative to initial level; format: ADME; conditions: 192 h
[7] = tested on: Leaf; experiment: Residue remaining in Solanum lycopersicum (tomato) plant leaves at 300 g/L treated under green house condition measured after 7 days relative to initial level; conditions: 168 h
[8] = tested on: Leaf; experiment: Drug residue remaining in Solanum lycopersicum (tomato) plant leaves at 300 g/L treated under green house condition measured after 22 days relative to initial level; conditions: 528 h
[9] = tested on: Leaf; experiment: Drug degradation in Solanum lycopersicum (tomato) plant leaves at 300 g/L treated under green house condition measured after 3 days relative to initial level; format: ADME; conditions: 72 h
[10] = tested on: Leaf; experiment: Drug degradation in Solanum lycopersicum (tomato) plant leaves at 300 g/L treated under green house condition measured after 4 days relative to initial level; format: ADME; conditions: 96 h
[11] = tested on: Fruit; experiment: Drug recovery in Solanum lycopersicum (tomato) plant fruits at 0.14 ug/g of spiking level; format: ADME
[12] = tested on: Leaf; experiment: Drug degradation in Solanum lycopersicum (tomato) plant leaves at 300 g/L treated under green house condition measured after 1 day relative to initial level; format: ADME; conditions: 24 h
[13] = tested on: Leaf; experiment: Drug degradation in Solanum lycopersicum (tomato) plant leaves at 300 g/L treated under green house condition measured after 15 days relative to initial level; format: ADME; conditions: 360 h
[14] = tested on: Fruit; experiment: Residue remaining in Solanum lycopersicum (tomato) plant fruits at 300 g/L treated under green house condition measured after 3 days relative to initial level; conditions: 72 h
[15] = tested on: Fruit; experiment: Drug degradation in Solanum lycopersicum (tomato) plant fruits at 300 g/L treated under green house condition measured after 15 days relative to initial level; format: ADME; conditions: 360 h
[16] = tested on: Fruit; experiment: Drug degradation in Solanum lycopersicum (tomato) plant fruits at 300 g/L treated under green house condition measured after 22 days relative to initial level; format: ADME; conditions: 528 h
[17] = tested on: Fruit; experiment: Drug degradation in Solanum lycopersicum (tomato) plant fruits at 300 g/L treated under green house condition measured after 8 days relative to initial level; format: ADME; conditions: 192 h
[18] = tested on: Leaf; experiment: Drug degradation in Solanum lycopersicum (tomato) plant leaves at 300 g/L treated under green house condition measured after 10 days relative to initial level; format: ADME; conditions: 240 h
[19] = Half life in Solanum lycopersicum (tomato) plant fruits at 300 g/L treated under green house condition; format: ADME, Fruit
[20] = tested on: Leaf; experiment: Drug recovery in Solanum lycopersicum (tomato) plant leaves at 1.83 ug/cm'2 of spiking level; format: ADME
[21] = tested on: Leaf; experiment: Drug degradation in Solanum lycopersicum (tomato) plant leaves at 300 g/L treated under green house condition measured after 6 days relative to initial level; format: ADME; conditions: 144 h

Cc1cc(C)nc(Nc2ccccc2)n1 [PYRIMETHANIL]
Residue remaining [1]: 0%
half-life [2]: 96 h
Drug remaining [3]: 25%
Drug remaining [4]: 15%
Drug remaining [5]: 100%
Drug degradation [6]: 0%
Residue remaining [7]: 11%
Residue remaining [8]: 0%
Residue remaining [9]: 41%
Residue remaining [10]: 22%
Drug recovery [11]: 99%
Drug remaining [12]: 100%
Drug degradation [13]: 0%
Residue remaining [14]: 79%
Residue remaining [15]: 5%
Residue remaining [16]: 0%
Residue remaining [17]: 16%
Drug degradation [18]: 0.02%
half-life [19]: 137 h
Drug recovery [20]: 91%
Residue remaining [21]: 11%
